{"source": "patent US20140378426A1", "about": "“Methods and compositions for enhancing visual function” (priority 2013, published 2014)", "key": {"[1]": {"biological_target": "T1, bovine rhodopsin activation of bovine rod transducin (Bos taurus, UniProt P02699)", "T1 construct": "Rhodopsin can be purified from membrane fractions isolated from bovine rod outer segments; from tissue; host or cells: bovine retina / bovine rod outer segments", "T1 sequence (P02699 whole entry)": "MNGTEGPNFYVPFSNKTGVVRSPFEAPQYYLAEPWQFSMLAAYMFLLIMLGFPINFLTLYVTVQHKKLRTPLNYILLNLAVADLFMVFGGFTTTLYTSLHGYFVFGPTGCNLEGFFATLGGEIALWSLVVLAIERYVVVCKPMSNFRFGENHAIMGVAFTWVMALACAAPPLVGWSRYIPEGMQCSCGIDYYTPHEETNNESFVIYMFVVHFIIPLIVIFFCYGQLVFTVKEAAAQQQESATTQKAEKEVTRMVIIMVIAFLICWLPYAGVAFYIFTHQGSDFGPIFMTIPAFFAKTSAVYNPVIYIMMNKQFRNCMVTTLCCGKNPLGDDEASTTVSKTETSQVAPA", "assay": "radioactive filter binding assay: rhodopsin activation of bovine rod transducin (35S-GTPγS binding)", "type": "biochemical", "text": "Vision enhancing activity of the estradiol analogs or derivatives can be examined in accordance with methods described herein or well known in the art. For example, the compounds can be assessed for ability to promote rhodopsin activation of rod transducin using a well-described radioactive filter binding assay. Detailed procedures for carrying out the assay are described in the art, e.g., Kono et al., Biochem. 44:799, 2005; Kono et al., FEBS Lett. 580:229-232, 2006; and Robinson et al., Methods Enzymol. 315:207-218, 2000). […] Effect of estradiol or an analog compound on rhodopsin activation of rod transducing can then be measured by monitoring binding of [35S]GTPγS to transducin in the presence or absence of the compound. The reaction mixture can contain, e.g., an appropriate buffer (e.g., an HEPES buffer or 10 mM Tris/1 mM MES buffer (pH 7.5)), 1 mM dithiothreitol, 5 mM MgCl2, 115 mM NaCl, 2.5 μM transducin, 0.01% DM, and 5 nM pigment (as determined from the extinction coefficient).\nWe examined the effect of the 17β-estradiol on opsin signaling and transducin activation. We measured the ability of estradiol to modulate rhodopsin activation of bovine rod transducin using the radioactive filter binding assay as described in Kono et al., Biochemistry 44:799-804, 2005; and Kono & Crouch, Methods Mol. Biol. 652:85-94, 2010. […]"}, "[2]": {"conditions": "cited from earlier work"}}}
{"smiles": "C[C@]12CC[C@@H]3c4ccc(O)cc4CC[C@H]3[C@@H]1CC[C@@H]2O", "note": "[17β-estradiol]", "values": [{"measurement": "35S-GTPγS bound to transducin in the presence vs. absence of 17β-estradiol", "setting": "[1]; bovine rhodopsin illuminated with 15 sec pulse of yellow light, Rho+estradiol vs Rho alone, FIG. 1", "value": "about three-fold"}, {"measurement": "rhodopsin activation of rod transducin (result in words)", "setting": "[1]; presence of 17β-estradiol", "value": "significantly up-regulated"}, {"measurement": "potency in estrogenic effect relative to estriol", "setting": "[2]; estradiol vs estriol", "value": "about 80 times"}, {"measurement": "potency in estrogenic effect relative to estrone", "setting": "[2]; estradiol vs estrone", "value": "about 10 times"}]}
